Data on 53 compounds can be found in patent US7816371B2, “Bicycloheteroaryl compounds as P2X7 modulators and uses thereof” (Renovis, Inc., priority 2006, dated 2010).

Each structure is given as a SMILES string. Some results are limits rather than exact numbers.

The experiment addresses T1, P2X7 receptor (Homo sapiens, UniProt Q99572).
T1 construct: host or cells: THP-1 cells differentiated with LPS and IFN-γ
T1 sequence (Q99572 1-595): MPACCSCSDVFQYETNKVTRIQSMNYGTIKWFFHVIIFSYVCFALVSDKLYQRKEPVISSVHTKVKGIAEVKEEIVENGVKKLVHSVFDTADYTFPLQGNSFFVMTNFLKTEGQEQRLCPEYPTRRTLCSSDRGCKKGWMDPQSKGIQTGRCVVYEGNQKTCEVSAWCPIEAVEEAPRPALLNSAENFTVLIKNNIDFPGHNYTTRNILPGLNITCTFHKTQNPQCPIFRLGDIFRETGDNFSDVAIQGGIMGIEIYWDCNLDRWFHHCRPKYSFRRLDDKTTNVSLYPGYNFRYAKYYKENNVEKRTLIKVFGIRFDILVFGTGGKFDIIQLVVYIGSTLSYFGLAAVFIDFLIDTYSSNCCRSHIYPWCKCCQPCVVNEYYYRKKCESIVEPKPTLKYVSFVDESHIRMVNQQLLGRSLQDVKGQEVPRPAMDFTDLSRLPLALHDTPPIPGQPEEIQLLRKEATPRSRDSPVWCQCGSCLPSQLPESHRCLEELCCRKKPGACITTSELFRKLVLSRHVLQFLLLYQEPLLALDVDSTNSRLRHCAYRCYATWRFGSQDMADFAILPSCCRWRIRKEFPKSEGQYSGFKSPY
Put plainly: IL-1β release assay in differentiated THP-1 cells stimulated with BzATP (Example 9); % inhibition and IC50. Particulars: THP-1 cells differentiated with LPS and IFN-γ, 30 min pretreatment, BzATP 250 uM, IL-1β by ELISA. The format is cell-based. As to the method: The cells are then pretreated for 30 minutes with the compound of interest at the appropriate concentration in RPMI media containing 100 IU/mL penicillin, 100 ug/mL streptomycin. […] 30 uL of cell supernatant is then collected and IL-1β levels determined via ELISA (R&D systems Cat. # HSLB50) according to manufacturer's recommendations using the Tecan Safire plate reader. Background adjusted IL-1β levels of drug treated and non-treated cells are used to calculate the percent inhibition.
The compounds set forth in Table 1 were tested for activity in a cellular model as described herein.
In the case of `C[C@H](CO)n1ccc2c(NC(=O)Cc3ccc(C(F)(F)F)cc3)cccc2c1=O` [Compound 319], the IC50 worked out at 25.1 nM.
Under `CS(=O)(=O)c1ccc(CCC(=O)Nc2cccc3c(=O)n(CCO)ccc23)cc1` [Compound 71] stands more than 1000 nM; under `C[C@H](C(N)=O)n1ccc2c(NC(=O)Cc3cccc(C(F)(F)F)c3F)cccc2c1=O` [Compound 285], 6.62 nM; under `C[C@H](CO)n1ccc2c(NC(=O)[C@H](C)c3ccc(Cl)c(Cl)c3)cccc2c1=O` [Compound 320], 9.54 nM.
With `C[C@H](C(N)=O)n1ccc2c(NC(=O)Cc3ccc(Cl)cc3F)c(Cl)ccc2c1=O` [Compound 343] the figure was 395 nM; with `CC(C)(CO)n1ccc2c(NC(=O)Cc3ccc(C(F)(F)F)cc3C(F)(F)F)cccc2c1=O` [Compound 366], 789 nM.
Under `CC(C)(CO)n1ccc2c(NC(=O)Cc3ccc(Cl)cc3F)cccc2c1=O` [Compound 374] stands 175 nM; under `NC(=O)[C@H](CO)n1ccc2c(NC(=O)Cc3ccc(Cl)c(Cl)c3)cccc2c1=O` [Compound 253], 763 nM; under `C[C@@H](C(N)=O)n1ccc2c(NC(=O)Cc3ccc(Cl)c(C(F)(F)F)c3)cccc2c1=O` [Compound 353], 29.6 nM.
Take `C[C@H](C(N)=O)n1ccc2c(NC(=O)Cc3ccc(Cl)cc3C(F)(F)F)cccc2c1=O` [Compound 241]: the IC50 stood at 23.6 nM.
With `C[C@H](C(N)=O)n1ccc2c(NC(=O)Cc3ccc(-c4ccccc4)cc3)cccc2c1=O` [Compound 289] the figure was 53 nM; with `CC(C)(CO)n1ccc2c(NC(=O)Cc3cccc(C(F)(F)F)c3F)cccc2c1=O` [Compound 368], 60.3 nM.
With `CC(C)(CO)n1ccc2c(NC(=O)Cc3ccc(Cl)c(C(F)(F)F)c3)cccc2c1=O` [Compound 369, 2-(4-Chloro-3-trifluoromethyl-phenyl)-N-[2-(2-hydroxy-1,1-dimethyl-ethyl)-1-oxo-1,2-dihydro-isoquinolin-5-yl]-acetamide] the figure was 15 nM; with `CCC(C(=O)Nc1cccc2c(=O)n(CCO)ccc12)c1ccccc1` (centres unmarked) [Compound 74], more than 1000 nM.
Under `O=C(Cc1cc(C(F)(F)F)ccc1Cl)Nc1cccc2c(=O)n(CCO)ccc12` [Compound 67] stands more than 1000 nM; under `O=C(Cc1ccc(Cl)c(C(F)(F)F)c1)Nc1cccc2c(=O)n(C(CO)CO)ccc12` [Compound 81, 2-(4-Chloro-3-trifluoromethyl-phenyl)-N-[2-(2-hydroxy-1-hydroxymethyl-ethyl)-1-oxo-1,2-dihydro-isoquinolin-5-yl]-acetamide], 27.8 nM.
As to `C[C@H](C(N)=O)n1ccc2c(NC(=O)Cc3ccc(F)c(C(F)(F)F)c3)cccc2c1=O` [Compound 304], the IC50 turned out to be 5.84 nM.
Under `C[C@@H](CO)n1ccc2c(NC(=O)Cc3ccc(F)c(Cl)c3)cccc2c1=O` [Compound 331] stands 163 nM.
With `C[C@H](C(N)=O)n1ccc2c(NC(=O)Cc3ccc(Cl)c(C(F)(F)F)c3)cccc2c1=O` [Compound 238, (R)-2-{5-[2-(4-Chloro-3-trifluoromethyl-phenyl)-acetylamino]-1-oxo-1H-isoquinolin-2-yl}-propionamide] the figure was 1.26 nM.
Under `C[C@H](C(N)=O)n1ccc2c(NC(=O)Cc3ccc(F)c(Br)c3)cccc2c1=O` [Compound 307] stands 18.5 nM.
Turning to `CC(C)C[C@H](CO)n1ccc2c(NC(=O)Cc3ccc(Cl)c(C(F)(F)F)c3)cccc2c1=O` [Compound 280], the IC50 stood at 121 nM.
With `C[C@@H](C(N)=O)n1ccc2c(NC(=O)Cc3ccc(F)c(Cl)c3)cccc2c1=O` [Compound 346] the figure was 66.9 nM.
With `C[C@H](CO)n1ccc2c(NC(=O)Cc3cccc(C(F)(F)F)c3F)cccc2c1=O` [Compound 324], the IC50 was determined as 22.1 nM.
With `C[C@H](C(=O)Nc1cccc2c(=O)n([C@H](C)C(N)=O)ccc12)c1ccc(Cl)cc1` [Compound 263] the figure was 13.3 nM; with `CNCCn1ccc2c(NC(=O)Cc3ccc(Cl)c(C(F)(F)F)c3)cccc2c1=O` [Compound 235, 2-(4-Chloro-3-trifluoromethyl-phenyl)-N-[2-(2-methylamino-ethyl)-1-oxo-1,2-dihydro-isoquinolin-5-yl]-acetamide], 70.6 nM.
Consider `NC(=O)Cn1ccc2c(NC(=O)Cc3ccc(Cl)c(C(F)(F)F)c3)cccc2c1=O` [Compound 249, 2-{5-[2-(4-Chloro-3-trifluoromethyl-phenyl)-acetylamino]-1-oxo-1H-isoquinolin-2-yl}-acetamide], for which the IC50 is 4.83 nM.
Consider `CC(C(=O)Nc1cccc2c(=O)n(CCO)ccc12)c1ccc(Cl)c(C(F)(F)F)c1` (centres unmarked) [Compound 251], for which the IC50 is 57.3 nM.
Under `Cc1ccc2c(=O)n([C@H](C)CO)ccc2c1NC(=O)Cc1ccc(C(F)(F)F)cc1` [Compound 397] stands 5.54 nM.
Under `C[C@H](CO)n1ccc2c(NC(=O)Cc3ccc(C(F)(F)F)c(F)c3)cccc2c1=O` [Compound 335] stands 9.31 nM; under `O=C(Nc1cccc2c(=O)n(CCO)ccc12)c1ccc(C(F)(F)F)cc1C(F)(F)F` [Compound 6], 311 nM.
Regarding `CC(C)(CO)n1ccc2c(NC(=O)Cc3ccc(C(F)(F)F)cc3F)cccc2c1=O` [Compound 370], the IC50 was 134 nM.
With `CC(C(=O)Nc1cccc2c(=O)n([C@H](C)C(N)=O)ccc12)c1ccc(F)cc1` (some centres unmarked) [Compound 299] the figure was 24.8 nM; with `C[C@H](C(N)=O)n1ccc2c(NC(=O)Cc3ccc(Cl)c(F)c3)cccc2c1=O` [Compound 300], 5.96 nM; with `C[C@H](C(=O)Nc1cccc2c(=O)n([C@H](C)CO)ccc12)c1ccc(Cl)c(Cl)c1` [Compound 321], 13.4 nM.
Under `O=C(CCc1ccccc1)Nc1cccc2c(=O)n(CCO)ccc12` [Compound 3] stands 272 nM.
Under `CC(C)(CO)n1ccc2c(NC(=O)Cc3ccc(Cl)c(Cl)c3)cccc2c1=O` [Compound 371] stands 157 nM; under `O=C(Cc1ccc(F)c(C(F)(F)F)c1)Nc1c(Cl)ccc2c(=O)n(CCO)ccc12` [Compound 386, N-[6-Chloro-2-(2-hydroxy-ethyl)-1-oxo-1,2-dihydro-isoquinolin-5-yl]-2-(4-fluoro-3-trifluoromethyl-phenyl)-acetamide], 5.45 nM.
For the compound `O=C(Cc1ccc(F)c(Cl)c1)Nc1cccc2c(=O)n(CCO)ccc12` [Compound 341], the IC50 is 52.6 nM.
With `CC(C)(CO)n1ccc2c(NC(=O)Cc3ccc(C(F)(F)F)c(F)c3)cccc2c1=O` [Compound 365] the figure was 41.1 nM; with `C[C@H](C(N)=O)n1ccc2c(NC(=O)Cc3ccc(F)cc3Cl)cccc2c1=O` [Compound 291], 20.6 nM; with `O=C(Cc1ccc(Cl)c(F)c1)Nc1cccc2c(=O)n(CCO)ccc12` [Compound 354], 84.2 nM.
Under `C[C@H](C(N)=O)n1ccc2c(NC(=O)[C@H](C)c3ccc(Cl)c(Cl)c3)cccc2c1=O` [Compound 269] stands 8.97 nM; under `CS(=O)(=O)c1ccc(CC(=O)Nc2cccc3c(=O)n(CCO)ccc23)cc1` [Compound 72], more than 1000 nM.
`O=C(Cc1cc(Cl)ccc1C(F)(F)F)Nc1cccc2c(=O)n(CCO)ccc12` [Compound 68]: the IC50 is 720 nM.
With `C[C@H](C(N)=O)n1ccc2c(NC(=O)Cc3ccccc3Cl)cccc2c1=O` [Compound 260] the figure was 694 nM.
With `O=C(Cc1ccc(Cl)cc1Cl)Nc1cccc2c(=O)n(C(CO)CO)ccc12` [Compound 82] the figure was 228 nM.
With `C[C@H](C(N)=O)n1ccc2c(NC(=O)Cc3c(F)cccc3C(F)(F)F)cccc2c1=O` [Compound 286] the figure was 374 nM; with `CC(C(=O)Nc1cccc2c(=O)n([C@H](C)C(N)=O)ccc12)c1ccc(Cl)c(C(F)(F)F)c1` (stereo partly drawn) [Compound 267, (R)-2-{5-[2-(4-Chloro-3-trifluoromethyl-phenyl)-propionylamino]-1-oxo-1H-isoquinolin-2-yl}-propionamide], 3.19 nM; with `C[C@@H](CO)n1ccc2c(NC(=O)Cc3ccc(Cl)c(F)c3)cccc2c1=O` [Compound 334], 202 nM.
As for `C[C@H](C(N)=O)n1ccc2c(NC(=O)Cc3ccc(F)cc3C(F)(F)F)cccc2c1=O` [Compound 295], the IC50 is 184 nM.
With `CC(C(=O)Nc1cccc2c(=O)n([C@H](C)C(N)=O)ccc12)c1ccc(Cl)c(Cl)c1` (some centres unmarked) [Compound 254] the figure was 25.3 nM.
Take `C[C@H](C(N)=O)n1ccc2c(NC(=O)Cc3cccc(Cl)c3)cccc2c1=O` [Compound 255]: the IC50 turned out to be 21.6 nM.
Under `C[C@@H](C(N)=O)n1ccc2c(NC(=O)Cc3cccc(C(F)(F)F)c3F)cccc2c1=O` [Compound 349] stands 48.9 nM.
